Target: Beta-secretase (BACE) (Homo sapiens, UniProt Q9Y5Z0+P56817)
Experiment: Inhibitory activity against aspartyl protease
Assay type: protein assay

IC50: 1400 nM
SMILES: CC[C@H](C)[C@H](NC(=O)[C@H](Cc1ccccc1)NC(C)=O)C(=O)NC(CC(C)C)C(O)CC(=O)NC(CC(C)C)C(N)=O (stereo in doubt)

From ChEMBL document CHEMBL1127641, “Applications of combinatorial technologies to drug discovery. 1. Background and peptide combinatorial libraries” (J Med Chem, 1994)
